Laboratory results: patent US12448383B2, “Compounds and methods for treatment of viral infections” (priority 2022, dated 2025)

Key:
[1] = CC50 MT4 cytotoxicity (Cell-Titer Glo); type: cell-based; settings: human
Summary of the method: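 Uninfected MT-4 and HEp-2 cells cultured 4-5 days at 37° C with 3-fold serially diluted compound (15 nM to 100,000 nM). Viability read by Cell-Titer Glo luminescence; untreated and 2 μM puromycin wells set 100% and 0%. CC50 from non-linear regression as concentration reducing viability by 50%.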

[2] = system: Caco-2 cells (clone C2BBe1); experiment: CACO-2 permeability; type: in vitro ADME; set-up: unit not given here; settings: for DM Caco2 A to B: apical to basolateral, donor pH 6.5, receiver pH 7.4; for DM Caco2 B to A: basolateral to apical
Summary of the method: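 Caco-2 monolayers grown 21 days on collagen-coated transwells and checked for integrity by TEER. Donor buffer was HBSS/HEPES/glucose pH 6.5 with 200 μM BNPP; receiver was pH 7.4 with BSA. Compounds were dosed apically or basolaterally for A-to-B and B-to-A transport, with receiver sampling at 1 and 2 h, LC-MS/MS analysis and percent recovery.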

[3] = Stability in pH2 buffered solution; type: physicochemical; settings: pH2 phosphate buffer, 40° C., 24 h; Table N2
Summary of the method: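 Compounds diluted from 1 mg/mL acetonitrile stock to 50 μg/mL in 50 mM phosphate buffer with 150 mM NaCl at pH2 or pH7, held at 40° C. for 24 hrs. UPLC sampling at 0, 3, 6, 9, 12 hrs, plus 24 hrs from oven-stored duplicate; reported as % area normalized of compound peak.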

[4] = system: Respiratory syncytial virus recombinant with luciferase (RSV-Luc5) in Normal Human Bronchial Epithelial (NHBE) cells; experiment: microbe, parasite or virus in culture; type: cell-based; settings: 72 h, read-out: RSV NHBE EC50
[5] = GI S9 stability - no PMSF; type: in vitro ADME; settings: pH 7.4; human intestinal S9, PMSF-free; read-out: GIS9-HUMAN-NoPMSF T1/2
Summary of the method: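 Compounds were incubated at 2 μM with PMSF-free intestinal S9 (1 mg/mL protein) in 100 mM PBS, pH 7.4, sampling at 6 time points over 120 min. Parent disappearance and formation of the nucleoside metabolite Reference Compound A were quantified by LC-MS (Q-Exactive) using analyte/internal standard peak area ratios.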

[6] = system: SARS Coronavirus 2 recombinant with NanoLuc (SARS-CoV2-NLuc) in A549-hACE2 cells; experiment: organism not typed; type: cell-based; settings: 48 h; read-out: SARS-CoV2 EC50
[7] = Plasma stability; type: in vitro ADME; set-up: unit not given here; settings: 37° C., 2 μM substrate
Summary of the method: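 Reaction mixture was sampled at 0.05, 0.5, 1, 2, 3 and 4 hr into quench solution containing internal standard, then centrifuged and diluted with water. Remaining analyte was measured by LC-MS on a Q-Exactive using a formic acid/acetonitrile gradient, with 5 ppm mass tolerance.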

[8] = Stability in pH7 buffered solution; type: physicochemical; settings: pH7 phosphate buffer, 40° C., Table N2
Procedure: Example N: Stability in p112 and p117 Buffered Solutions
The aqueous stability of compounds over a time of 24 hours at 40° C. was assessed. Stability was determined in 50 mM phosphate buffered solutions at both pH2 and pH7, with 150 mM NaCl (to achieve isotonicity). 3-5 mg of solid compounds were added to 7 mL scintillation vials. Acetonitrile was added to each vial to produce a 1 mg/mL stock solution. Stock solutions were diluted to 50 μg/mL in either pH2 or pH7 phosphate buffer, to a volume of 1 mL. For each compound and pH condition, 50 μg/mL samples were prepped in duplicate. One sample was placed on the UPLC tray at 40° C. for analysis, and the second sample was placed in a 40° C. oven for storage. Sample preps for each compound were offset by 40 minutes to account for run time on UPLC.
Concentration timepoints were measured at 0, 3, 6, 9, and 12 hrs. After 24 hrs, samples in the 40° C. oven were removed and analyzed by UPLC.
In FIG. 2, % AN stands for % area normalized. That is, % AN is the area of the compound peak relative to the sum of areas of all the peaks in the UPLC chromatogram. For example, if there were two peaks, compound peak with an area of 9 and another peak with an area of 1, then the % AN of the compound peak would be 90%.

[9] = Thermodynamic solubility in pH7 buffered solution; settings: 50 mM phosphate buffer pH7, 150 mM NaCl, ambient temperature, 24 hours
Procedure: Solubility was determined at ambient temperature in a 50 mM phosphate buffered pH7 solution with 150 mM NaCl (to achieve isotonicity). Solids were added to the buffered solution in 1.5-mL Eppendorf tubes, vortexed for 1 minute, then agitated for 24 hours in an Eppendorf ThermoMixer C. […] Supernatants were diluted to a volume of 1 mL with 30:70 v/v acetonitrile:water. All diluted supernatants were analyzed by UPLC using a Waters Acquity UPLC with a PDA UV detector.

| Structure (SMILES) | CC50 [1] [µM] | DM Caco2 A to B [2] | DM Caco2 B to A [2] | pH 2 Stability 24 h % AN [3] [% AN] | EC50 [4] [µM] | half-life at 2 µM [5] [min] | EC50 [6] [µM] | STA Human Plasma 37 [7] | pH 7 Stability 24 h % AN [8] [% AN] | Sol pH 7 [9] |
| --- | --- | --- | --- | --- | --- | --- | --- | --- | --- | --- |
| CC(C)(OC(=O)OC[C@H]1O[C@@](C#N)(c2ccc3c(N)ncnn23)[C@H](O)[C@@H]1O)C(F)F [Compound 76, ((2R,3S,4R,5R)-5-(4-aminopyrrolo[2,1-f][1,2,4]triazin-7-yl)-5-cyano-3,4-dihydroxytetrahydrofuran-2-yl)methyl (1,1-difluoro-2-methylpropan-2-yl) carbonate] | > 50 | 2.13 | 12.17 | 92 | 3.4 | 38.9 | > 50 | 1584 | 91 | 0.37 |
| CCOC(=O)C(C)(C)OC(=O)OC[C@H]1O[C@@](C#N)(c2ccc3c(N)ncnn23)[C@H](O)[C@@H]1O [Compound 77, Ethyl 2-(((((2R,3S,4R,5R)-5-(4-aminopyrrolo[2,1-f][1,2,4]triazin-7-yl)-5-cyano-3,4-dihydroxytetrahydrofuran-2-yl)methoxy)carbonyl)oxy)-2-methyl propanoate] | > 50 | 0.27 | 5.58 | 98 | ≥ 50 | 792 | > 50 | 383.67 | 95 | 4.64 |
| COC(=O)[C@H]([C@@H](C)OC(=O)OC[C@H]1O[C@@](C#N)(c2ccc3c(N)ncnn23)[C@H](O)[C@@H]1O)N(C)C [Compound 78, methyl O-((((2R,3S,4R,5R)-5-(4-aminopyrrolo[2,1-f][1,2,4]triazin-7-yl)-5-cyano-3,4-dihydroxytetrahydrofuran-2-yl)methoxy)carbonyl)-N,N-dimethyl-L-threoninate] | > 50 | 0.2 | 4.2 | 90 | 3.6 | 72.1 | 3.58 | 336.23 | 0 | 0.89 |
| CC(=O)O[C@H]1[C@@H](OC(C)=O)[C@](C#N)(c2ccc3c(N)ncnn23)O[C@@H]1COC(=O)OC(C)(C)c1ccncc1 [Compound 79, (2R,3R,4R,5R)-2-(4-aminopyrrolo[2,1-f][1,2,4]triazin-7-yl)-2-cyano-5-(((((2-(pyridin-4-yl)propan-2-yl)oxy)carbonyl)oxy)methyl)tetrahydrofuran-3,4-diyl diacetate] | > 50 | 0.61 | 9.26 | 88 | > 50 | 0.681 | > 50 | 17.837 | 77 | 0.26 |
| CC(C)OC(=O)OC[C@H]1O[C@@](C#N)(c2ccc3c(N)ncnn23)[C@H](OC(=O)OC(C)C)[C@@H]1OC(=O)OC(C)C [Compound 81, (2R,3R,4R,5R)-2-(4-aminopyrrolo[2,1-f][1,2,4]triazin-7-yl)-2-cyano-5-(((isopropoxycarbonyl)oxy)methyl)tetrahydrofuran-3,4-diyl diisopropyl bis(carbonate)] | 48.3 | 7.77 | 14.74 | 100 | 0.996 | 0.688 | 24.4 | 195.87 | 98 | 0.06 |
| COC(=O)OC[C@H]1O[C@@](C#N)(c2ccc3c(N)ncnn23)[C@H](OC(=O)OC)[C@@H]1OC(=O)OC [Compound 93, (2R,3R,4R,5R)-2-(4-aminopyrrolo[2,1-f][1,2,4]triazin-7-yl)-2-cyano-5-(((methoxycarbonyl)oxy)methyl)tetrahydrofuran-3,4-diyl dimethyl bis(carbonate)] | 31.7 | 1.2 | 8.3 | 94 | 11.1 | 1.02 | 10.6 | 28.444 | 75 | 0.62 |
| CCOC(=O)OC[C@H]1O[C@@](C#N)(c2ccc3c(N)ncnn23)[C@H](OC(=O)OCC)[C@@H]1OC(=O)OCC [Compound 106, (2R,3R,4R,5R)-2-(4-aminopyrrolo[2,1-f][1,2,4]triazin-7-yl)-2-cyano-5-(((ethoxycarbonyl)oxy)methyl)tetrahydrofuran-3,4-diyl diethyl bis(carbonate)] | > 50 | 4.975 | 9.5 | 100 | 1.4 | 0.66 | 4.56 | 30.917 | 91 | 0.08 |
| CCC1O[C@H]2[C@@H](O1)[C@](C#N)(c1ccc3c(N)ncnn13)O[C@@H]2COC(=O)OC(C)C (stereo partly drawn) [Compound 133, ((3aR,4R,6R,6aR)-6-(4-aminopyrrolo[2,1-f][1,2,4]triazin-7-yl)-6-cyano-2-ethyltetrahydrofuro[3,4-d][1,3]dioxol-4-yl)methyl isopropyl carbonate] | > 50 | 17.25 | 16.82 | 95 | > 50 | 0.623 | > 50 | 73.357 | 98 | 0.24 |
